Assay results from US20130315903A1, “ARYLSULFONAMIDE DERIVATIVES FOR THE PREVENTION OR TREATMENT OF SPECIFIC OPHTHALMOLOGIC DISORDERS” (FOVEA PHARMACEUTICALS, priority 2010, published 2013).
Values joined by “and” are separate entries in the source; they are usually repeats but may differ in a detail not shown here. Equal entries are not always repeated.

How the values were obtained:
[1] = tested on: leukocyte adhesion to the retinal vasculature; assay: Leukocyte adhesion to the retinal vasculature (leukostasis) of streptozotocin-diabetic Wistar rats; format: in vivo, rat; conditions: 1% phosphate eye drop twice-a-day for 7 days, P<0.05
Source text: The effect of compound n° 49 phosphate on leukocyte adhesion to the retinal vasculature of streptozotocin-diabetic Wistar rats was also investigated using the same protocol of administration of compound n° 49 phosphate (1% eye drop twice-a-day for 7 days).

[2] = tested on: retinal vascular permeability in streptozotocin-diabetic Brown-Norway rats; assay: Retinal vascular permeability (Evans Blue dye) in streptozotocin-diabetic Brown-Norway rats, eye drops; format: in vivo, rat
Description: Male Brown-Norway or Wistar rats were made diabetic by […] injection of 65 mg/kg intraperitoneal streptozotocin. Rats with a glycemia <350 mg/dl were discarded from the study. Seven days later, Brown-Norway rats were treated twice daily for 7 days with a single eye drop (10 μl) containing 0.1, 0.3, 1 and 3% phosphate salt of compound n° 49 or its vehicle (Saline Solution). Wistar rats were treated over the same period (from day 7 for 7 days) with a single eye drop (10 μl) containing 0.3 and 1% fumarate salt of compound n° 49 or its vehicle (Saline Solution). On day 15, retinal vascular leakage was determined by measurement of retinal content of Evans Blue dye.
More specifically, FIG. 1A is the dose-response of compound n° 49 instilled twice a day for 7 days as eye drops (0.1 to 3%) on retinal vascular leakage in streptozotocin-diabetic Brown-Norway rats. Recombinant tissue kallikrein binding protein (rKBP) was used as a reference drug and was given intravitreally 48 hours before vascular leakage measurement. Values are means ±standard error mean of 12 eyes/group (6 rats). *** means that P<0.001in a Student's t-test.
The route by which the phosphate salt of compound n° 49 reaches the retina following topical instillation was investigated to determine whether it is mainly by systemic circulation or by the trans- and/or peri-ocular pathway. Diabetic Brown-Norway rats were treated with 3% compound n° 49 phosphate in a single eye for 7 days or subcutaneously with matching daily dosage (0.6 mg/rat). […] In addition, a daily subcutaneous administration of 0.6 mg compound n° 49 phosphate rat had no effect on retinal vascular permeability.

[3] = tested on: retina of diabetic Wistar rats (B1R, B2R, i-NOS, e-NOS, COX-2, ICAM-1, VEGF-R2, VEGF-a, IL-1β, HIF-1α mRNA); assay: mRNA expression of cytokines, vasoactive mediators and growth factors in retina of diabetic Wistar rats; format: in vivo, rat; conditions: 1% eye drops 7 days
Source text: In order to explore molecular pathways involved into reduction of retinal vascular permeability by compound n° 49 phosphate in diabetic rats, expression of mRNA of cytokines, vasoactive mediators and growth factors was quantified in retina of control and diabetic Wistar rats treated or not with 1% compound n° 49 phosphate eye drops for 7 days. Expression of mRNA of B1R, B2R, i-NOS, e-NOS, COX-2, ICAM-1, VEGF-R2, VEGF-a, IL-1β and HIF-1α was increased in diabetic rat retina compared to control by 7.5-fold (P<0.05), 5.5, 15- (P<0.01), 6.5-, 8- (P<0.05), 8- , 5- (P<0.05), 12-, 6.5- (P<0.01) and 7-fold (P<0.05), respectively. Expression of TNF-α mRNA remained unchanged.

[4] = tested on: retina of diabetic Wistar rats (B1R, B2R, i-NOS, e-NOS, COX-2, ICAM-1, VEGF-R2, VEGF-a, IL-1β, HIF-1α mRNA); assay: as above; format: in vivo, rat; conditions: 1% eye drops 7 days; remark: listed apart in the source
[5] = tested on: retinal vascular leakage in STZ diabetic Brown-Norway rats; conditions: intravitreal route, positive reference drug; cited from earlier work

Molecule: COc1cc(C)c(S(=O)(=O)N(C)CCOCC(=O)N(C)Cc2ccc(C3=NCCN3)cc2)c(C)c1 [compound n° 49 phosphate]
- leukostasis in retinal vessels of diabetic rats [1]: significantly blunted
- reduction of retinal vascular permeability, treated eye ([2]; 3% phosphate in a single eye for 7 days, diabetic Brown-Norway rats, P<0.001): 37%
- reduction of retinal oedema, maximum ([2]; phosphate salt, eye drop 0.1-3% twice daily for 7 days, dose-dependent, diabetic Brown-Norway rats): 55%
- mRNA expression of B1R in retina [3]: down-regulated to control level
- mRNA expression of B2R in retina [3]: down-regulated to control level
- mRNA expression of COX-2 in retina [3]: down-regulated to control level
- mRNA expression of HIF-1α in retina [3]: down-regulated to control level
- mRNA expression of ICAM-1 in retina [3]: down-regulated to control level
- mRNA expression of VEGF-A in retina (in list down-regulated to control level) [3]: down-regulated to control level
- mRNA expression of e-NOS in retina [3]: down-regulated to control level
- mRNA expression of i-NOS in retina [3]: down-regulated to control level
- reduction of expression of VEGF-A mRNA in retina [3]: 50%
- mRNA expression of IL-1β in retina [4]: down-regulated to control level

Molecule: COc1cc(C)c(S(=O)(=O)N(C)CCOCC(=O)N(C)Cc2ccc(C3=NCCN3)cc2)c(C)c1 [compound n° 49]
- reduction of retinal edema, maximum ([2]; 1% eye drops, two separate preliminary studies (data not shown), strain not stated): 58% and 63%

B1: rKBP: Recombinant tissue kallikrein binding protein, reference drug given intravitreally (protein, UniProt P29622 21-427, looked up)
Kallistatin: QLHVEHDGESCSNSSHQQILETGEGSPSLKIAPANADFAFRFYYLIASETPGKNIFFSPLSISAAYAMLSLGACSHSRSQILEGLGFNLTELSESDVHRGFQHLLHTLNLPGHGLETRVGSALFLSHNLKFLAKFLNDTMAVYEAKLFHTNFYDTVGTIQLINDHVKKETRGKIVDLVSELKKDVLMVLVNYIYFKALWEKPFISSRTTPKDFYVDENTTVRVPMMLQDQEHHWYLHDRYLPCSVLRMDYKGDATVFFILPNQGKMREIEEVLTPEMLMRWNNLLRKRNFYKKLELHLPKFSISGSYVLDQILPRLGFTDLFSKWADLSGITKQQKLEASKSFHKATLDVDEAGTEAAAATSFAIKFFSAQTNRHILRFNRPFLVVIFSTSTQSVLFLGKVVDPTKP
- reduction of retinal vascular leakage [5]: approximately 50%
